Data as given in patent publication US11446287B2, “Compounds and methods for EP300 or CBP modulation and indications therefor” (Opna Immuno-Oncology SA, priority 2019, dated 2022).

What follows are compounds tested against T1, Recombinant human CBP containing the bromodomain (CBP-BD (1043-1159)) (Homo sapiens, UniProt Q92793) (assay: CBP Alphascreen binding assay). Conditions: read-out: CREBBP (CBP) IC50.
T1 construct: Recombinant human CBP bromodomain (CBP-BD (1043-1159)); made in house; host or cells: E. coli BL21-CodonPlus (DE3), modified pET vector
T1 sequence (Q92793 1081-1197): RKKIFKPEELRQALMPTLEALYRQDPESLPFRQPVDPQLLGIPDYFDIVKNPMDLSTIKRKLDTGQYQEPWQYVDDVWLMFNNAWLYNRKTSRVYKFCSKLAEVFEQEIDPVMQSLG
Method in brief: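 Buffer: 50 mM HEPES pH 7.5, 50 mM NaCl, 0.01% BSA, 0.01% Triton X-100, 2 mM DTT. The signal was normalised to plate controls and fitted with a four-parameter curve to give IC50.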
In the case of `Cc1noc(C)c1-c1cnc2c(c1)c(-c1ccc(C(=O)O)cc1Cl)cn2C(c1ccccn1)C1CCCC1` (stereo not shown) [P-0027, 3-chloro-4-(1-(cyclopentyl(pyridin-2-yl)methyl)-5-(3,5-dimethylisoxazol-4-yl)-1H-pyrrolo[2,3-b]pyridin-3-yl)benzoic acid], the IC50 is reported as 0.0001 to 1 µM.
For `Cc1cc(-c2cn(C(c3ccccn3)C3CCCC3)c3ncc(-c4c(C)noc4C)cc23)ccc1C(=O)O` (stereo not shown) [P-0028, 4-(1-(cyclopentyl(pyridin-2-yl)methyl)-5-(3,5-dimethylisoxazol-4-yl)-1H-pyrrolo[2,3-b]pyridin-3-yl)-2-methylbenzoic acid], the IC50 was 0.0001 to 1 µM.
Compound `Cc1noc(C)c1-c1cnc2c(c1)c(-c1ccc(C(=O)O)c(C(F)(F)F)c1)cn2C(c1ccccn1)C1CCCC1` (stereo not shown) [P-0029, 4-(1-(cyclopentyl(pyridin-2-yl)methyl)-5-(3,5-dimethylisoxazol-4-yl)-1H-pyrrolo[2,3-b]pyridin-3-yl)-2-(trifluoromethyl)benzoic acid] has an IC50 of 0.0001 to 1 µM.
`Cc1noc(C)c1-c1cnc2c(c1)c(-c1ccc(C(=O)O)c(O)c1)cn2C(c1ccccn1)C1CCCC1` (stereo not shown) [P-0030, 4-(1-(cyclopentyl(pyridin-2-yl)methyl)-5-(3,5-dimethylisoxazol-4-yl)-1H-pyrrolo[2,3-b]pyridin-3-yl)-2-hydroxybenzoic acid] was tested, and the IC50 was 1 to 8 µM.
`Cc1noc(C)c1-c1cnc2c(c1)c(-c1ccc(CC(=O)O)cc1)cn2C(c1ccccn1)C1CCCC1` (stereo not shown) [P-0031, 2-(4-(1-(cyclopentyl(pyridin-2-yl)methyl)-5-(3,5-dimethylisoxazol-4-yl)-1H-pyrrolo[2,3-b]pyridin-3-yl)phenyl)acetic acid] showed an IC50 of 0.0001 to 1 µM.
Work on `Cc1noc(C)c1-c1cnc2c(c1)c(-c1ccc(C(C)(C)C(=O)O)cc1)cn2C(c1ccccn1)C1CCCC1` (stereo not shown) [P-0032, 2-(4-(1-(cyclopentyl(pyridin-2-yl)methyl)-5-(3,5-dimethylisoxazol-4-yl)-1H-pyrrolo[2,3-b]pyridin-3-yl)phenyl)-2-methylpropanoic acid] yielded an IC50 of 0.0001 to 1 µM.
In the case of `Cc1noc(C)c1-c1cnc2c(c1)c(-c1ccc(C3(C(=O)O)CC3)cc1)cn2C(c1ccccn1)C1CCCC1` (stereo not shown) [P-0033, 1-(4-(1-(cyclopentyl(pyridin-2-yl)methyl)-5-(3,5-dimethylisoxazol-4-yl)-1H-pyrrolo[2,3-b]pyridin-3-yl)phenyl)cyclopropane-1-carboxylic acid], the IC50 is reported as 0.0001 to 1 µM.
`Cc1noc(C)c1-c1cnc2c(c1)c(-c1ccc(C(F)(F)C(=O)O)cc1)cn2C(c1ccccn1)C1CCCC1` (stereo not shown) [P-0034, 2-(4-(1-(cyclopentyl(pyridin-2-yl)methyl)-5-(3,5-dimethylisoxazol-4-yl)-1H-pyrrolo[2,3-b]pyridin-3-yl)phenyl)-2,2-difluoroacetic acid] was tested, and the IC50 was 0.0001 to 1 µM.
`COc1ncccc1-n1cc(-c2ccc(C(=O)O)cc2OC(F)(F)F)c2cc(-c3c(C)noc3C)cnc21` [P-0316, 4-(5-(3,5-dimethylisoxazol-4-yl)-1-(2-methoxypyridin-3-yl)-1H-pyrrolo[2,3-b]pyridin-3-yl)-3-(trifluoromethoxy)benzoic acid] was tested, and the IC50 was 0.0001 to 1 µM.
Work on `Cc1ncccc1-n1cc(-c2ccc(C(=O)O)cc2OC(F)(F)F)c2cc(-c3c(C)noc3C)cnc21` [P-0317, 4-(5-(3,5-dimethylisoxazol-4-yl)-1-(2-methylpyridin-3-yl)-1H-pyrrolo[2,3-b]pyridin-3-yl)-3-(trifluoromethoxy)benzoic acid] yielded an IC50 of 0.0001 to 1 µM.
For `Cc1noc(C)c1-c1cnc2c(c1)c(-c1ccc(C(=O)O)cc1OC(F)(F)F)cn2-c1cnn(C)c1` [P-0318, 4-(5-(3,5-dimethylisoxazol-4-yl)-1-(1-methyl-1H-pyrazol-4-yl)-1H-pyrrolo[2,3-b]pyridin-3-yl)-3-(trifluoromethoxy)benzoic acid], the IC50 was 0.0001 to 1 µM.
For `Cc1noc(C)c1-c1cnc2c(c1)c(-c1ccc(C(=O)O)cc1OC(F)(F)F)cn2-c1cncnc1` [P-0319, 4-(5-(3,5-dimethylisoxazol-4-yl)-1-(pyrimidin-5-yl)-1H-pyrrolo[2,3-b]pyridin-3-yl)-3-(trifluoromethoxy)benzoic acid], the IC50 was 0.0001 to 1 µM.
With `Cc1noc(C)c1-c1cnc2c(c1)c(-c1ccc(C(=O)O)cc1OC(F)(F)F)cn2-c1cnc(N)nc1` [P-0320, 4-(1-(2-aminopyrimidin-5-yl)-5-(3,5-dimethylisoxazol-4-yl)-1H-pyrrolo[2,3-b]pyridin-3-yl)-3-(trifluoromethoxy)benzoic acid] the IC50 was 0.0001 to 1 µM.
`Cc1noc(C)c1-c1cnc2c(c1)c(-c1ccc(C(=O)O)cc1OC(F)(F)F)cn2-c1cnc(N(C)C)nc1` [P-0321] was tested, and the IC50 was 0.0001 to 1 µM.
For `Cc1noc(C)c1-c1cnc2c(c1)c(-c1ccc(C(=O)O)cc1OC(F)(F)F)cn2-c1ccc(C(=O)O)cc1` [P-0322, 4-(1-(4-carboxyphenyl)-5-(3,5-dimethylisoxazol-4-yl)-1H-pyrrolo[2,3-b]pyridin-3-yl)-3-(trifluoromethoxy)benzoic acid], the IC50 was 0.0001 to 1 µM.
`Cc1noc(C)c1-c1cnc2c(c1)c(-c1ccc(C(=O)O)cc1OC(F)(F)F)cn2-c1ccc(C(N)=O)cc1` [P-0323, 4-(1-(4-carbamoylphenyl)-5-(3,5-dimethylisoxazol-4-yl)-1H-pyrrolo[2,3-b]pyridin-3-yl)-3-(trifluoromethoxy)benzoic acid] was tested, and the IC50 was 0.0001 to 1 µM.
For `COc1cc(C(=O)O)ncc1-c1cn(-c2ccncc2Cl)c2ncc(-c3c(C)noc3C)cc12` [P-0324, 5-(1-(3-chloropyridin-4-yl)-5-(3,5-dimethylisoxazol-4-yl)-1H-pyrrolo[2,3-b]pyridin-3-yl)-4-methoxypicolinic acid], the IC50 was 0.0001 to 1 µM.
`Cc1noc(C)c1-c1cnc2c(c1)c(-c1ccc(C(=O)O)cc1OCC(F)F)cn2[C@H]1CCOC1` [P-0325, (S)-3-(2,2-difluoroethoxy)-4-(5-(3,5-dimethylisoxazol-4-yl)-1-(tetrahydrofuran-3-yl)-1H-pyrrolo[2,3-b]pyridin-3-yl)benzoic acid] gave an IC50 of 0.0001 to 1 µM.
In the case of `CCn1cc(-n2cc(-c3ccc(C(=O)O)cc3OCC(F)F)c3cc(-c4c(C)noc4C)cnc32)c(C)n1` [P-0326, 3-(2,2-difluoroethoxy)-4-(5-(3,5-dimethylisoxazol-4-yl)-1-(1-ethyl-3-methyl-1H-pyrazol-4-yl)-1H-pyrrolo[2,3-b]pyridin-3-yl)benzoic acid], the IC50 is reported as 0.0001 to 1 µM.
`Cc1noc(C)c1-c1cnc2c(c1)c(-c1c(F)cc(C(=O)O)cc1OCC(F)F)cn2-c1ccccc1` [P-0327, 3-(2,2-difluoroethoxy)-4-(5-(3,5-dimethylisoxazol-4-yl)-1-phenyl-1H-pyrrolo[2,3-b]pyridin-3-yl)-5-fluorobenzoic acid] showed an IC50 of 0.0001 to 1 µM.
Compound `Cc1noc(C)c1-c1cnc2c(c1)c(-c1ccc(C(=O)O)cc1OCC(F)F)cn2-c1cnc(N2CCC2)nc1` [P-0328, 4-(1-(2-(azetidin-1-yl)pyrimidin-5-yl)-5-(3,5-dimethylisoxazol-4-yl)-1H-pyrrolo[2,3-b]pyridin-3-yl)-3-(2,2-difluoroethoxy)benzoic acid] has an IC50 of 0.0001 to 1 µM.
With `CCOc1cc(C(=O)O)nc(OCC)c1-c1cn(-c2ccc(F)cc2F)c2ncc(-c3c(C)noc3C)cc12` [P-0329, 5-(1-(2,4-difluorophenyl)-5-(3,5-dimethylisoxazol-4-yl)-1H-pyrrolo[2,3-b]pyridin-3-yl)-4,6-diethoxypicolinic acid] the IC50 was 0.0001 to 1 µM.
In the case of `CCOc1cc(C(=O)O)c(F)cc1-c1cn(-c2ccc(F)cc2F)c2ncc(-c3c(C)noc3C)cc12` [P-0330, 4-(1-(2,4-difluorophenyl)-5-(3,5-dimethylisoxazol-4-yl)-1H-pyrrolo[2,3-b]pyridin-3-yl)-5-ethoxy-2-fluorobenzoic acid], the IC50 is reported as 0.0001 to 1 µM.
`Cc1noc(C)c1-c1cnc2c(c1)c(-c1c(Cl)cc(C(=O)O)cc1OCC(F)F)cn2-c1cnc(N2CCC2)nc1` [P-0331, 4-(1-(2-(azetidin-1-yl)pyrimidin-5-yl)-5-(3,5-dimethylisoxazol-4-yl)-1H-pyrrolo[2,3-b]pyridin-3-yl)-3-chloro-5-(2,2-difluoroethoxy)benzoic acid] was tested, and the IC50 was 0.0001 to 1 µM.
`Cc1noc(C)c1-c1cnc2c(c1)c(-c1c(Cl)cc(C(=O)O)cc1OCC(F)F)cn2-c1ccccc1` [P-0332, 3-chloro-5-(2,2-difluoroethoxy)-4-(5-(3,5-dimethylisoxazol-4-yl)-1-phenyl-1H-pyrrolo[2,3-b]pyridin-3-yl)benzoic acid] showed an IC50 of 0.0001 to 1 µM.
`Cc1noc(C)c1-c1cnc2c(c1)c(-c1c(Cl)cc(C(=O)O)cc1OCC(F)F)cn2[C@H]1CCOC1` [P-0333, (S)-3-chloro-5-(2,2-difluoroethoxy)-4-(5-(3,5-dimethylisoxazol-4-yl)-1-(tetrahydrofuran-3-yl)-1H-pyrrolo[2,3-b]pyridin-3-yl)benzoic acid] gave an IC50 of 0.0001 to 1 µM.
For `Cc1noc(C)c1-c1cnc2c(c1)c(-c1ccc(C(=O)O)cc1OC1CCC1)cn2-c1ncccc1C#N` [P-0334, 4-(1-(3-cyanopyridin-2-yl)-5-(3,5-dimethylisoxazol-4-yl)-1H-pyrrolo[2,3-b]pyridin-3-yl)-3-cyclobutoxybenzoic acid], the IC50 was 0.0001 to 1 µM.
Work on `Cc1noc(C)c1-c1cnc2c(c1)c(-c1ccc(C(=O)O)cc1OC(F)(F)F)cn2C1(CC#N)CCC1` [P-0335, 4-(1-(1-(cyanomethyl)cyclobutyl)-5-(3,5-dimethylisoxazol-4-yl)-1H-pyrrolo[2,3-b]pyridin-3-yl)-3-(trifluoromethoxy)benzoic acid] yielded an IC50 of 0.0001 to 1 µM.
`Cc1noc(C)c1-c1cnc2c(c1)c(-c1ccc(C(=O)O)cc1OC(C)C)cn2-c1ncccc1C#N` [P-0336, 4-(1-(3-cyanopyridin-2-yl)-5-(3,5-dimethylisoxazol-4-yl)-1H-pyrrolo[2,3-b]pyridin-3-yl)-3-isopropoxybenzoic acid] gave an IC50 of 0.0001 to 1 µM.
Work on `Cc1noc(C)c1-c1cnc2c(c1)c(-c1ccc(C(=O)O)cc1OC1CC1)cn2-c1ncccc1C#N` [P-0337, 4-(1-(3-cyanopyridin-2-yl)-5-(3,5-dimethylisoxazol-4-yl)-1H-pyrrolo[2,3-b]pyridin-3-yl)-3-cyclopropoxybenzoic acid] yielded an IC50 of 0.0001 to 1 µM.
In the case of `Cc1noc(C)c1-c1cnc2c(c1)c(-c1ccc(C(=O)O)cc1OCC(F)F)cn2C(C1CC1)C1CC1` [P-0338, 4-(1-(dicyclopropylmethyl)-5-(3,5-dimethylisoxazol-4-yl)-1H-pyrrolo[2,3-b]pyridin-3-yl)-3-(2,2-difluoroethoxy)benzoic acid], the IC50 is reported as 0.0001 to 1 µM.
